Source: ChEMBL document CHEMBL3091369, “Synthesis and structure-activity relationships of new carbonyl guanidine derivatives as novel dual 5-HT2B and 5-HT7 receptor antagonists” (Bioorg Med Chem, 2013)

Tests used:
[1] = molecular target: T1, 5-hydroxytryptamine receptor 7 (Homo sapiens, UniProt P34969); test: Displacement of [3H]5-HT from human 5-HT7 receptor expressed in CHO cells by liquid scintillation counting analysis; assay type: cell-based
[2] = molecular target: T2, 5-hydroxytryptamine receptor 2B (Homo sapiens, UniProt P41595); test: Displacement of [3H]Mesulergine from human 5-HT2B receptor expressed in HEK293 cells by liquid scintillation counting analysis; assay type: cell-based
T2 sequence (P41595 whole entry): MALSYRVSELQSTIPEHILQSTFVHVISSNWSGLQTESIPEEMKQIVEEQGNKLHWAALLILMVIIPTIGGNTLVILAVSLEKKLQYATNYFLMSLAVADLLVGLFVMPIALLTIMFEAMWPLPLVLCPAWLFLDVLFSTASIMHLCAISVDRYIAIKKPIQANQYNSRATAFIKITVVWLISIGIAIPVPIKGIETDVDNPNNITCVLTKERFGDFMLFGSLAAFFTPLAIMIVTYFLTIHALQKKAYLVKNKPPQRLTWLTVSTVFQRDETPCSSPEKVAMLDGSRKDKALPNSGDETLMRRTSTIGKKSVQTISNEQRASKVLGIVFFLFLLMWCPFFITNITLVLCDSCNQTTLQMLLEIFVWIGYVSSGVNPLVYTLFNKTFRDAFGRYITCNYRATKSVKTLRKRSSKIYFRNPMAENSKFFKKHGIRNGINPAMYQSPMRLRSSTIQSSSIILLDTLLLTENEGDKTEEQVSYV

[3] = molecular target: T3, Muscarinic acetylcholine receptor M1 (Homo sapiens, UniProt P11229); test: Binding affinity to muscarinic M1 receptor (unknown origin)
T3 sequence (P11229 whole entry): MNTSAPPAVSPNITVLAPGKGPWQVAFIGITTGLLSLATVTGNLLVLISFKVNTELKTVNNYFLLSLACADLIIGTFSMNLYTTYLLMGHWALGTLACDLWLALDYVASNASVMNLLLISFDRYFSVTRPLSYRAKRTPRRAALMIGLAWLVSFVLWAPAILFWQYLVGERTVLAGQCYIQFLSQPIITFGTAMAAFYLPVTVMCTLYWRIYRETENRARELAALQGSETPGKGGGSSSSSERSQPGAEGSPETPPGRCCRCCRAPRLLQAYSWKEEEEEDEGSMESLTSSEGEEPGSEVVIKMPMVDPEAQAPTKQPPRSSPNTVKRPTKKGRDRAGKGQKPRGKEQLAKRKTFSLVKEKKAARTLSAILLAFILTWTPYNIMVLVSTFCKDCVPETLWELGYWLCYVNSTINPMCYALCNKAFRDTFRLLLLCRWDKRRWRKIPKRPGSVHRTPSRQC

D(2) dopamine receptor = D(2) dopamine receptor (Homo sapiens, UniProt P14416); test: Binding affinity to dopamine D2 receptor (unknown origin)
Sequence of D(2) dopamine receptor (P14416 whole entry): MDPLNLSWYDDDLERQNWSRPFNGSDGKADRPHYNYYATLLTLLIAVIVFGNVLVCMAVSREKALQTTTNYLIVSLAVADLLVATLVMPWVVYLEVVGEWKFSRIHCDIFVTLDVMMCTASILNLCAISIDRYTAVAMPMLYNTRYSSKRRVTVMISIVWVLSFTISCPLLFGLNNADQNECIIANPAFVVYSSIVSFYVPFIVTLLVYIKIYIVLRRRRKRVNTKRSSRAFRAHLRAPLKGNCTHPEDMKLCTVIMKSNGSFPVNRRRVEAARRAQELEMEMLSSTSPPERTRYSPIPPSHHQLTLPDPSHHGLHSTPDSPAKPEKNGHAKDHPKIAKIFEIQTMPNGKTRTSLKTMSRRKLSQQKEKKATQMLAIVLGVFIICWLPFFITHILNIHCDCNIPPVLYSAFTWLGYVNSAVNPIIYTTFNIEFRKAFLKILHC

[4] = molecular target: T4, Adrenergic receptor alpha-1 (Homo sapiens, UniProt P35348+P25100+P35368); test: Binding affinity to adrenergic alpha1 receptor (unknown origin)
T4 sequence (P35348 whole entry): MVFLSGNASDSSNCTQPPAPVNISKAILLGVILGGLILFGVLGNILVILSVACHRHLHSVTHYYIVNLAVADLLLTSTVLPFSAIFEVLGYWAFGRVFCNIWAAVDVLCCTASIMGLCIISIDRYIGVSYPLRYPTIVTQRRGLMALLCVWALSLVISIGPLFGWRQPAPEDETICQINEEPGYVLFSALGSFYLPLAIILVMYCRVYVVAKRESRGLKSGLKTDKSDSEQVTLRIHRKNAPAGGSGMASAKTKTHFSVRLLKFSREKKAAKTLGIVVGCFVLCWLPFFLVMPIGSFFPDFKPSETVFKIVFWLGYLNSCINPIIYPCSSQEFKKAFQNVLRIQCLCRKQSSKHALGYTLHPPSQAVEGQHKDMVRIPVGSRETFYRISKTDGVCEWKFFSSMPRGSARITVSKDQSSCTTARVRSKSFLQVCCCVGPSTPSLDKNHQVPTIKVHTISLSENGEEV
T4 sequence (P25100 whole entry): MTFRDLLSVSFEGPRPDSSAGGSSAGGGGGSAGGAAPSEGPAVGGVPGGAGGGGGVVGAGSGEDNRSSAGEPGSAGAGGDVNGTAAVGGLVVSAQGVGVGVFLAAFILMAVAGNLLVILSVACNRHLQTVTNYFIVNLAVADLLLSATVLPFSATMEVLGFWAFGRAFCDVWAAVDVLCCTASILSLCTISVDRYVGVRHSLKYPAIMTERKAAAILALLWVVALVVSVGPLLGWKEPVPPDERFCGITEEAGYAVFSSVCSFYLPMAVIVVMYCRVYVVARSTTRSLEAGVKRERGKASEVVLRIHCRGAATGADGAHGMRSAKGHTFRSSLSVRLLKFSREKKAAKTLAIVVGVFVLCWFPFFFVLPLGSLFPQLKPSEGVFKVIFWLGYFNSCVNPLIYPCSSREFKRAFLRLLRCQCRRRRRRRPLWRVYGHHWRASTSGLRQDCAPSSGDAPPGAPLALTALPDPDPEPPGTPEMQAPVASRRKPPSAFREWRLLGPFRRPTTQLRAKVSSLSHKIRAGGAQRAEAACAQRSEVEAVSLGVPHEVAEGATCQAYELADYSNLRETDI
T4 sequence (P35368 whole entry): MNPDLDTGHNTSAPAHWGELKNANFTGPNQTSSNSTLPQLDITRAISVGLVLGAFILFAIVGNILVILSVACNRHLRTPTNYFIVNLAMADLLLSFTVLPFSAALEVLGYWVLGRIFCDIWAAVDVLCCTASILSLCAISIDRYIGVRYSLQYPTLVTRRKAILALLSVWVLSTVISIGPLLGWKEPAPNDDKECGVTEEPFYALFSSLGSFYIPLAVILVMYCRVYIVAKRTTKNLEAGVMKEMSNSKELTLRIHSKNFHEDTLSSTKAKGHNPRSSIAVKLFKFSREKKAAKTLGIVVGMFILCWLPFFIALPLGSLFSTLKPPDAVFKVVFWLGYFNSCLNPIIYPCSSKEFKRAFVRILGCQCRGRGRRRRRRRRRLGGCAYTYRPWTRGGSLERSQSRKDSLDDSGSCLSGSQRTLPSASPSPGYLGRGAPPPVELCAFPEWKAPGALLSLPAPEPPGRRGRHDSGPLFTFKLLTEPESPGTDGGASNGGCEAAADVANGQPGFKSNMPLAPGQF

[5] = molecular target: T5, 5-hydroxytryptamine receptor 2C (Homo sapiens, UniProt P28335); test: Binding affinity to 5-HT2C receptor (unknown origin)
T5 sequence (P28335 whole entry): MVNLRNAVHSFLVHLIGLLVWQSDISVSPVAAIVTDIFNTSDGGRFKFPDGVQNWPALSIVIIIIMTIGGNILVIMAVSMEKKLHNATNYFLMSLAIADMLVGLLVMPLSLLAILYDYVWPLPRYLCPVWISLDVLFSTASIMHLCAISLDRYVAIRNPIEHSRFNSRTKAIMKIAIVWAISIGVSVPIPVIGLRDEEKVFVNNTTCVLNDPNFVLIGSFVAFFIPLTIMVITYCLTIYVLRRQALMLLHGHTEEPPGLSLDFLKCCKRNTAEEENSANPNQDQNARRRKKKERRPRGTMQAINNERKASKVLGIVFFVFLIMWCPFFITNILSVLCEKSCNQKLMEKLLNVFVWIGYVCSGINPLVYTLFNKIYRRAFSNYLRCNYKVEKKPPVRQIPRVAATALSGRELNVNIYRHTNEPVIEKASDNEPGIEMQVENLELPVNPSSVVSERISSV

[6] = molecular target: 5-hydroxytryptamine receptor 2A (Homo sapiens, UniProt P28223); test: Binding affinity to 5-HT2A receptor (unknown origin)
Sequence of 5-hydroxytryptamine receptor 2A (P28223 whole entry): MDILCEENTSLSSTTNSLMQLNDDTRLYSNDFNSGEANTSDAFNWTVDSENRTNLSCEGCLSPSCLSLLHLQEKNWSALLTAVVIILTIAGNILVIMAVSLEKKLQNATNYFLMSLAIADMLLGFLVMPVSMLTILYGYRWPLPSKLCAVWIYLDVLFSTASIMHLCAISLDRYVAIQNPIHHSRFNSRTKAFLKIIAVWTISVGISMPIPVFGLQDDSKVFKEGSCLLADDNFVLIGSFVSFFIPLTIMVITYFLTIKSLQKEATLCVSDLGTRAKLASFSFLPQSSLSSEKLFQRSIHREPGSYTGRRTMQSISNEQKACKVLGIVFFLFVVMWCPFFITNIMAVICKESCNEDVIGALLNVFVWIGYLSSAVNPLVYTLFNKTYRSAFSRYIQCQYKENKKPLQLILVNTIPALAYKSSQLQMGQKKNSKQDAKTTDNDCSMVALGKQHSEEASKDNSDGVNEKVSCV

Cavia porcellus [7] = test: Suppression of 5-HT induced dural FITC-labeled BSA extravasation in po dosed Hartley guinea pig pretreated for 30 mins followed by FITC-labeled BSA administration measured after 16 hrs by fluorescence assay; assay type: functional, organism-based
Cavia porcellus [8] = test: Suppression of 5-HT induced dural FITC-labeled BSA extravasation in ip dosed Hartley guinea pig pretreated for 30 mins followed by FITC-labeled BSA administration measured after 16 hrs by fluorescence assay; assay type: functional, organism-based
Cavia porcellus [9] = test: Suppression of 5-HT induced dural FITC-labeled BSA extravasation in Hartley guinea pig at 3 mg/kg, ip pretreated for 30 mins followed by FITC-labeled BSA administration measured after 16 hrs by fluorescence assay relative to control; assay type: functional; details: route intraperitoneal
[10] = molecular target: T1, 5-hydroxytryptamine receptor 7; test: Antagonist activity at human 5-HT7 receptor expressed in CHO cells assessed as inhibition of agonist-induced cAMP production at 10 uM incubated for 20 mins prior to substrate addition measured after 10 mins by EIA relative to control; assay type: functional, cell-based
[11] = molecular target: T2, 5-hydroxytryptamine receptor 2B; test: Antagonist activity at human 5-HT2B receptor expressed in HEK293 cells coexpressing EBNA assessed as inhibition of 5-HT-induced IP metabolism incubated for 20 mins prior to substrate addition measured after 20 mins by liquid scintillation counting analysis; assay type: cell-based
[12] = Aqueous solubility of the compound in second liquid of Japanese pharmacopoeia at pH 6.8 after 20 hrs by liquid chromatographic analysis; assay type: physicochemical

T1 sequence (P34969 whole entry): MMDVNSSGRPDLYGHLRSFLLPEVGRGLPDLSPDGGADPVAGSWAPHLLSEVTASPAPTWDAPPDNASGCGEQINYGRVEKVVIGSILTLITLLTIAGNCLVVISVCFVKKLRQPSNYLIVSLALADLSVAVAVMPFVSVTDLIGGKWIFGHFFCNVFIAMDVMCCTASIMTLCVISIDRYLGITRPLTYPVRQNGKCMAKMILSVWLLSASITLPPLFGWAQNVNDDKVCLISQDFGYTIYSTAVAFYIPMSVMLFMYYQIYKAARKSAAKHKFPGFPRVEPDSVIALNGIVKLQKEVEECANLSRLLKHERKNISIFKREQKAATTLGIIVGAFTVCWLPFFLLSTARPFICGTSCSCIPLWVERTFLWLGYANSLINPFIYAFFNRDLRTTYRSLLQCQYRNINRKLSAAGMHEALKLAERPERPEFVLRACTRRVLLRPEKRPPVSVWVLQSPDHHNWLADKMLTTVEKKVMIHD

NC(N)=NC(=O)c1ccc2c(c1)[nH]c1ccccc12
Ki [1]: 42 nM | Ki [2]: 10 nM

CN1CCC(=C2c3ccccc3CCc3sccc32)CC1 [PIZOTYLINE]
Ki [3]: 2 nM | Ki (D(2) dopamine receptor): 2.4 nM | Ki [4]: 75 nM | Ki [5]: 1.4 nM | Ki [6]: 7.5 nM | Ki [1]: 25 nM | Ki [2]: 2 nM

Cl.NC(N)=NC(=O)c1ccc2c(c1)C(O)c1ccccc1-2 (configuration not stated)
Activity (Cavia porcellus [7]): Dose-dependent effect | Activity (Cavia porcellus [8]): Dose-dependent effect | Activity (Cavia porcellus [9]): 93% | Imax [10]: 97% | IC50 [11]: 19.6 nM | Ki [3]: > 1000 nM | Ki (D(2) dopamine receptor): > 1000 nM | Ki [4]: > 1000 nM | Ki [5]: > 1000 nM | Ki [6]: > 1000 nM | solubility at 20 h [12]: < 10 µg/mL

NC(N)=NC(=O)c1ccc2c(c1)Nc1ccccc1O2
Ki [1]: 144 nM | Ki [2]: 3.6 nM

NC(N)=NC(=O)c1cccc2c1Cc1ccccc1-2
Ki [1]: 239 nM | Ki [2]: 1.1 nM

NC(N)=NC(=O)c1ccc2c(c1)Oc1ccccc1N2
Ki [1]: > 1000 nM | Ki [2]: 2.4 nM

NC(N)=NC(=O)c1ccc2c(c1)-c1ccccc1C2O (configuration not stated)
Ki [1]: > 1000 nM | Ki [2]: 86.8 nM

NC(N)=NC(=O)c1cccc2c1-c1ccccc1C2
Ki [1]: > 1000 nM | Ki [2]: 27.4 nM

NC(N)=NC(=O)/C=C/c1ccc2c(c1)C(O)c1ccccc1-2 (configuration not stated)
Ki [1]: > 100 nM | Ki [2]: 52 nM

CC(C)c1cc(-c2ccc(F)c3ccccc23)nc(N)n1
Activity (Cavia porcellus [9]): 60%

NC(N)=NC(=O)c1ccc2c(c1)oc1ccccc12
Ki [1]: > 100 nM | Ki [2]: 2.1 nM

NC(N)=NC(=O)c1ccc2c(c1)C(=O)c1ccccc1-2
Ki [1]: 185 nM | Ki [2]: 0.4 nM

NC(N)=NC(=O)c1ccc2c(c1)Cc1ccccc1-2
Imax [10]: 98% | IC50 [11]: 36.4 nM | Ki [3]: > 1000 nM | Ki (D(2) dopamine receptor): 1400 nM | Ki [4]: 790 nM | Ki [5]: 200 nM | Ki [6]: 1000 nM | solubility at 20 h [12]: < 1 µg/mL | Ki [1]: 12.4 nM | Ki [2]: 1.8 nM
